Where two headings read alike, the source gives them in different places.

The values that follow come from US20160193216A1 (Nimbus Iris, Inc., priority 2012, published 2016).

The target in series [1] is T1, IRAK4 (Homo sapiens, UniProt Q9NWZ3).
T1 sequence (Q9NWZ3 1-460): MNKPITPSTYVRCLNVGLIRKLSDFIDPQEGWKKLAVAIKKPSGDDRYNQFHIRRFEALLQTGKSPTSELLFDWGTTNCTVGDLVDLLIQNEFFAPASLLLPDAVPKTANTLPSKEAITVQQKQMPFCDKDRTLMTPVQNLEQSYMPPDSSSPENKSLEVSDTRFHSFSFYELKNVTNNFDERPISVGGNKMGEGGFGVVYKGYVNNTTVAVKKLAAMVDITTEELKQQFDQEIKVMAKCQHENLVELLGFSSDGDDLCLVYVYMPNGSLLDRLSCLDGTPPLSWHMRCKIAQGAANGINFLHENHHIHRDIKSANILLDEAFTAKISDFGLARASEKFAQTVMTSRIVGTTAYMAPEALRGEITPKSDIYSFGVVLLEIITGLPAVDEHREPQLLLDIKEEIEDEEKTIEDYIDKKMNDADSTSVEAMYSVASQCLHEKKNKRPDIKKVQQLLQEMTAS
Kind of series: IRAK-4 activity inhibition assay (Caliper). Particulars: 37 μM ATP, 3.5 nM IRAK4. It is filed as biochemical.

Series [2] has as its system THP-1 cells. Kind of series: LPS induced cytokine (TNFα and IL8) production assay in THP-1 cells. It is filed as cell-based. Particulars: Homo sapiens, 300 ng/mL LPS. Summed up:
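THP-1 cells (100,000/well) pre-incubated 1 hour with compound in 0.3% DMSO, then stimulated with 300 ng/mL LPS. TNFα and IL8 in supernatant measured by HTRF at 5 hours; IL8 and viability also at 16 hours.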

For series [3], the system named is Whole Blood. Put plainly: In vitro LPS/R848-induced cytokine production assay in whole blood. It is filed as cell-based, human. Here is the method: (§1) In Vitro LPS/R848/CpG-Induced Cytokine Production Assays in hPBMC or Whole Blood
(§2) Compounds of the present invention were also studied in in vitro LPS/R848/CpG-induced cytokine production assays. Exemplary protocols follow.
(§3) […] Cells were seeded in a 96-well plate with 130 ul/well of the cell suspension according to the plate map. 9 ul of 30 mM compound solution was added into the wells in the assigned rows, then serial solutions with 4× dilutions were made. That is, add 9 uL of 100% DMSO into each of the rest wells and take 3 uL of compound solution from the one-step higher concentration solution and mix well with the DMSO. For the second compound master plate, 196 uL of the growth medium (no serum media) were added into each of the wells and 4 uL of the compound solution from the first compound master plate was added and mixed with the media. Cells were treated for 0.5 h by adding 20 uL of the compound and the control solutions prepared in the second master plate to each well according to the plate map. […] Plates were sealed with sealing films and the plates were centrifuged at 3000 rpm at 4 degrees C. for 5 min. The supernatants were transferred, and 100 ul of working Capture antibody solution was added to each well. The plates were sealed and incubated overnight at RT. IL-6, IFN-α or TNF-α detection antibody labeled with biotin: Added 100 uL of the Detection Antibody solution to each well. Covered the plate and incubated for 2 h at RT. Added 100 uL of Streptavidin-HRP solution to each well. Covered the plate and incubate for 20 min at RT in dark. Added 100 uL of Substrate Solution to each well. Incubated for 20 min at RT in dark. Added 50 uL of Stop Solution to each well. Gently tapped the plate to ensure thorough mixing. Determined the optical density of each well immediately, using a microplate reader set to 450 nm and also read at 540 nm or 570 nm for correction if wavelength correction is not available.

Series [4] deals with GCB DLBCL Cells. Kind of series: sensitization of GCB DLBCL cells by BTK knockdown. It is filed as cell-based. Particulars: BTK knockdown (FIG. 10).
In series [5] the test system is ABC DLBCL Cells. Put plainly: sensitization of ABC DLBCL cells to IRAK inhibitors by BTK knockdown. It is filed as cell-based. The note with it: BTK knockdown (FIG. 9). An excerpt: FIG. 8 depicts the sensitization of ABC DLBCL Cells to IRAK Inhibitors by BTK knockdown.
Series [6] concerns collagen-induced arthritis. Kind of series: In vivo murine collagen-induced arthritis model. Particulars: DBA mice, intraperitoneally 30 mg/kg twice a day, vs vehicle. As to the method:
In Vivo Murine Collagen-Induced Arthritis Model Compounds of the present invention were also evaluated in mice in an in vivo efficacy model for inhibiting IRAK4-mediated arthritis. An exemplary protocol for this assay follows. Male DBA mice were immunized with collagen on day 0 and day 21 and randomly enrolled into groups upon onset of disease. […] Eight mice were enrolled per group with the exception of the naïve control group, which contained four mice. Day 1 was designated as the first treatment day, and mice were evaluated daily for clinical scores until day 11. The mice were weighed on alternating days.

For series [7], the system named is OCI-Ly10 cells. Put plainly: In vivo murine xenograft tumor model of human ABC DLBCL lymphoma. Particulars: NOD/SCID mice. As to the method:
In Vivo Murine Tumor Model of Human ABC DLBCL Lymphoma
Compounds of the present invention were also evaluated in a xenograft tumor model of human ABC DLBCL lymphoma first described and disclosed in Staudt et al. (2012). The tumor was established by subcutaneous injection of OCI-Ly10 cells into immunodeficient (NOD/SCID) mice. […] Tumor growth was monitored by measuring tumor size in two orthogonal directions. The tumor volume was calculated by using the formula (1/2)(long dimension)×(short dimension)^2.
For orientation: Xenograft models place foreign cells or tissue in a host animal.

Series [8] deals with hPBMC. Put plainly: In vitro LPS/R848/CpG/IL-1β-induced cytokine production assay in hPBMC. The note with it: Homo sapiens. It is filed as cell-based. As to the method:
as §1, §2, §3

Series [9] has as its system ABC DLBCL cell lines. Kind of series: Cell viability assay, combination with ibrutinib. It is filed as cell-based. Here is the method: Compounds of the present invention were also evaluated in a cell viability assay.
[10] abbreviates: Homo sapiens, LPS 0.1 ug/mL, read-out: TNF-α production IC50.
[11] abbreviates: Homo sapiens, R848 1 uM, read-out: IFN-α production IC50.
The mark [12] stands for this setting: R848 1 uM, read-out: TNF-α production IC50.
The mark [13] stands for this setting: Homo sapiens, LPS 0.1 ug/mL, read-out: IL-6 production IC50.
Where [14] appears, read: LPS 0.01 ug/mL, read-out: IL-6 production IC50.
Setting [15] is: LPS 0.01 ug/mL, read-out: TNF-α production IC50.

Broadly, the IC50 is the concentration that gives 50% inhibition. Consider `NC(=O)[C@H]1CCc2sc3ncnc(O[C@H]4CC[C@H](N5CCOCC5)CC4)c3c2C1` [Compound I-220, (12S)-3-[[4-(morpholin-4-yl)cyclohexyl]oxy]-8-thia-4,6-diazatricyclo[7.4.0.0[2,7]]trideca-1(9),2(7),3,5-tetraene-12-carboxamide], for which the IC50 is less than 5000 nM in series [1]; not above 500 nM in series [2] (read-out: IL8 production IC50); not above 500 nM in series [2] (read-out: TNFα production IC50); not below 1000 nM in series [3] (setting [10]); not below 1000 nM in series [3] (setting [11]); not below 1000 nM in series [3] (setting [12]).
Regarding `Cn1cc(Nc2nc(O[C@H]3CC[C@H](N(C)C)CC3)c3c4c(sc3n2)CCC4CC(N)=O)cn1` (stereo in doubt) [Compound I-224, 2-[(3S)-12-[[4-(dimethylamino)cyclohexyl]oxy]-10-[(1-methyl-1H-pyrazol-4-yl)amino]-7-thia-9,11-diazatricyclo[6.4.0.0[2,6]]dodeca-1(8),2(6),9,11-tetraen-3-yl]acetamide], the IC50 in [2] (read-out: IL8 production IC50) was not above 500 nM; in series [2] (read-out: TNFα production IC50) it was not above 500 nM; in series [3] (setting [10]), not below 1000 nM; in series [3] (setting [11]), not below 1000 nM.
Take `CN(C)[C@H]1CC[C@H](Oc2ncnc3sc4c(c23)C[C@@H](C(N)=O)CC4)CC1` [Compound I-233, (12S)-3-[[4-(dimethylamino)cyclohexyl]oxy]-8-thia-4,6-diazatricyclo[7.4.0.0[2,7]]trideca-1(9),2(7),3,5-tetraene-12-carboxamide]: the IC50 in [1] is less than 5000 nM; in series [2] (read-out: IL8 production IC50), not above 500 nM; in series [2] (read-out: TNFα production IC50) it was not above 500 nM; in series [3] (setting [10]), not below 1000 nM; in series [3] (setting [11]), not below 1000 nM; in [3] (setting [12]), not below 1000 nM.
As to `NC(=O)C[C@H]1CCc2sc3ncnc(O[C@H]4CC[C@H](N5CCCC5)CC4)c3c21` [Compound I-105, 2-[(3R)-12-[[4-(pyrrolidin-1-yl)cyclohexyl]oxy]-7-thia-9, 11-diazatricyclo[6.4.0.0[2,6]]dodeca-1(8),2(6),9, 11-tetraen-3-yl]acetamide], the IC50 in series [1] was less than 5000 nM; in series [2] (read-out: IL8 production IC50) it was not above 500 nM; in [2] (read-out: TNFα production IC50), 500 to 1000 nM; in series [3] (setting [10]), not below 1000 nM.
As to `NC(=O)[C@@H](O)C[C@H]1CCc2sc3ncnc(O[C@H]4CC[C@H](N5CCOCC5)CC4)c3c21` [Compound I-92, (S)-2-hydroxy-3-((R)-4-(((1r,4R)-4-morpholinocyclohexyl)oxy)-6,7-dihydro-5H-cyclopenta[4,5]thieno[2,3-d]pyrimidin-5-yl)propanamide], the “sensitization of GCB DLBCL Cells to compound by BTK Knockdown” value in series [4] is listed as “lack of sensitization”. The “sensitization of ABC DLBCL Cells to compound by BTK knockdown” value in series [5] is on record as “sensitization”. Moreover, the IC50 is not above 500 nM in series [2] (read-out: IL8 production IC50); not above 500 nM in series [2] (read-out: TNFα production IC50); not above 250 nM in series [3] (setting [13]); 500 to 1000 nM in [3] (setting [10]); 500 to 1000 nM in series [3] (setting [11]); 500 to 1000 nM in series [3] (setting [12]). Moreover, the IC50 in series [8] (CpG 0.1 uM, read-out: IFN-α production IC50) is 250 to 500 nM; in [8] (CpG 0.5 uM, read-out: TNF-α production IC50), not above 250 nM; in series [8] (IL-1β 1 ng/mL, read-out: IL-6 production IC50) it was not above 250 nM; in [8] (setting [14]), not above 250 nM; in series [8] (setting [15]), not above 250 nM; in series [8] (setting [12]), not above 250 nM. The “Clinical scores, collagen-induced arthritis” value in series [6] is listed as “efficacious compared to the vehicle”. Besides, the “ABC lymphoma growth (tumor volume)” value in series [7] is on record as “reduces ABC lymphoma growth”. Besides, the “Tolerability in the animals” value in series [7] is given as “well tolerated”. Moreover, in series [9], the “Killing of ABC DLBCL cells in combination with ibrutinib” value was “Synergistic killing”.
On to `CCN[C@H]1CC[C@H](Oc2ncnc3sc4c(c23)[C@@H](CC(N)=O)CC4)CC1` [Compound I-85, 2-((R)-4-(((1r,4R)-4-(ethylamino)cyclohexyl)oxy)-6,7-dihydro-5H-cyclopenta[4,5]thieno[2,3-d]pyrimidin-5-yl)acetamide], for which the IC50 in series [1] was less than 5000 nM; in series [2] (read-out: IL8 production IC50) it was 500 to 1000 nM; in series [2] (read-out: TNFα production IC50), 500 to 1000 nM; in series [3] (setting [10]), not below 1000 nM.
For `Cn1cc(Nc2nc(O[C@H]3CC[C@H](N4CCOCC4)CC3)c3c4c(sc3n2)CC[C@@H]4CC(N)=O)cn1` [Compound I-235], the IC50 in [2] (read-out: IL8 production IC50) is not above 500 nM; in series [2] (read-out: TNFα production IC50) it was not above 500 nM; in series [3] (setting [10]), not below 1000 nM; in [3] (setting [11]), not below 1000 nM.
Regarding `CN(CC(=O)N1CCCC1)[C@H]1CC[C@H](Oc2ncnc3sc4c(c23)[C@@H](CC(N)=O)CC4)CC1` [Compound I-73, 2-[(3R)-12-[(4-[methyl[2-oxo-2-(pyrrolidin-1-yl)ethyl]amino]cyclohexyl)oxy]-7-thia-9,11-diazatricyclo[6.4.0.0[2,6]]dodeca-1(8),2(6),9,11-tetraen-3-yl]acetamide], the IC50 in series [1] was less than 5000 nM; in series [2] (read-out: IL8 production IC50), 1000 to 5000 nM; in [2] (read-out: TNFα production IC50), 1000 to 5000 nM; in series [3] (setting [10]), not below 1000 nM.
Turning to `CN[C@H]1CC[C@H](Oc2ncnc3sc4c(c23)[C@@H](CC(N)=O)CC4)CC1` [Compound I-79, 2-[(3R)-12-[[4-(methylamino)cyclohexyl]oxy]-7-thia-9,11-diazatricyclo[6.4.0.0̂[2,6]]dodeca-1(8),2(6),9,11-tetraen-3-yl]acetamide], the IC50 in series [1] is less than 5000 nM; in series [2] (read-out: IL8 production IC50) it was 500 to 1000 nM; in series [2] (read-out: TNFα production IC50), 1000 to 5000 nM; in series [3] (setting [13]), not below 1000 nM; in series [3] (setting [10]), not below 1000 nM; in series [8] (setting [14]), not below 1000 nM. For the same compound, the IC50 in series [8] (setting [15]) is not below 1000 nM.
